Publication PMC9033141, “Beta and Gamma Amino Acid-Substituted Benzenesulfonamides as Inhibitors of Human Carbonic Anhydrases” (Pharmaceuticals, 2022)
Where two headings read alike, the source gives them in different places.

Key:
CAIX [1] = molecular target: T1, CAIX (Homo sapiens, UniProt Q16790); assay: biochemical; assay type: binding
T1 construct: made in house
Experimental: (§1) Human CA isozymes were expressed in E. coli (CAI, II, III, IV, VA, VB, VII, XII, XIII, XIV) or mammalian cells (CAVI and CAIX), chromatographically purified following the published protocols [47], and stored at −80 °C. The protein concentration was determined by UV absorption at 280 nm using Beer–Lambert law.
(§2) The QIAGEN Rotor-Gene Q was used to carry out the experiments, with a blue channel used for excitation (365 nm) and detection (460 nm). FTSA in this case relies on an extrinsic probe, 8-anilino-1-naphthalenesulfonate (ANS), to detect the fluorescence increase during protein denaturation, from which protein melting temperature (Tm) can be determined. […] The observed affinity of ligands for CAs was determined by plotting the Tm as a function of ligand concentration and then fitting a curve as described previously [48]. […] Samples were heated from 25 °C to 99 °C at the speed of 1 °C/min.
(§3) The intrinsic thermodynamic parameters were calculated as described in [40]. The intrinsic reaction of inhibitor binding to CA is shown in Equation (1).
(§4) When calculating Kd_int values, these protein and ligand fractions from Equation (1) have to be accounted for (Equations (2) and (3)). The intrinsic dissociation constant is calculated by multiplying Kd_obs value by the corresponding fractions of protein and ligand (Equation (4)). (2) fRSO2NH^−=10^pH−pKa_RSO2NH2/1+10^pH−pKa_RSO2NH2 (3) fCAZnH2O=1−10^pH−pKa_CAZnH2O/1+10^pH−pKa_CAZnH2O (4) Kd_int=Kd_obs×fRSO2NH^−×fCAZnH2O (5) ΔGint0=RTlnKd_int
(§5) The intrinsic standard Gibbs energy changes upon binding were calculated using Equation (5). Here, R—universal ideal gas constant (8.3144 J/mol·K), T—absolute temperature (310.15 K).

CAXIII [2] = molecular target: T2, CAXIII (Homo sapiens, UniProt Q8N1Q1); conditions: 37 °C; calculated (Equation 5);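 for Intrinsic Gibbs energy change (ΔGint), CAXIII: recombinant human CAXIII melting temperature tracked by ANS fluorescence in thermal shift assay, Tm fitted against ligand concentration, intrinsic value corrects Kd for deprotonated sulfonamide and Zn-bound water fractions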
Experimental: as §1, §2, §3, §4, §5

CAII [3] = molecular target: T3, CAII (Homo sapiens, UniProt P00918); assay: Isothermal titration calorimetry (ITC), CAII; assay type: binding; conditions: pH 7.0, 37 °C, read-out: Observed Dissociation Constant (Kd_obs), CAII, ITC data in brackets
T3 construct: made in house; host or cells: E. coli

CAVB = molecular target: T4, CAVB (Homo sapiens, UniProt Q9Y2D0); assay: Fluorescent thermal shift assay (FTSA), CAVB; assay type: binding
T4 construct: made in house; host or cells: E. coli

CAII [4] = molecular target: T3, CAII; assay: biochemical; assay type: binding
Experimental: as §1, §2, §3, §4, §5

CAXIV = molecular target: T5, CAXIV (Homo sapiens, UniProt Q9ULX7); assay: Fluorescent thermal shift assay (FTSA), CAXIV; assay type: binding;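 note: recombinant human CA XIV from E. coli, ANS-based thermal shift: Kd_obs fitted from melting temperature versus ligand concentration, ΔGint from Kd_obs corrected for deprotonated sulfonamide and Zn-water fractions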
T5 construct: made in house; host or cells: E. coli
Experimental: as §1, §2
(§6) The intrinsic thermodynamic parameters were calculated as described in [40]. The intrinsic reaction of inhibitor binding to CA is shown in Equation (1). […] It is known that CA proteins bind sulfonamides only when water molecules are coordinated to the Zn(II) ion, and sulfonamides only bind to CA proteins when their amino group is deprotonated (confirmed by neutron crystallography [53, 54, 55]):(1) CA Zn^II−H2O+RSO2NH^−⇄ CA Zn^II−NH SO2R+H2O
as §4, §5

CAIII = molecular target: T6, CAIII (Homo sapiens, UniProt P07451); assay: Fluorescent thermal shift assay (FTSA), CAIII; assay type: binding; conditions: FTSA, pH 7.0, 37 °C; read-out: Observed Dissociation Constant (Kd_obs), CAIII
T6 construct: made in house; host or cells: E. coli

CAIV = molecular target: T7, CAIV (Homo sapiens, UniProt P22748); assay: Fluorescent thermal shift assay (FTSA), CAIV; assay type: binding;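 note: recombinant human enzyme, thermal denaturation followed by ANS fluorescence, melting temperature versus ligand concentration fitted for Kd_obs, intrinsic value corrected for deprotonated sulfonamide and Zn-bound water fractions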
T7 construct: made in house; host or cells: E. coli

CAI [5] = molecular target: T8, CAI (Homo sapiens, UniProt P00915); assay: biochemical; assay type: binding
T8 construct: made in house; host or cells: E. coli
Experimental: as §1, §2, §3, §4, §5

CAVA = molecular target: T9, CAVA (Homo sapiens, UniProt P35218); assay: Fluorescent thermal shift assay (FTSA), CAVA; assay type: binding; conditions: FTSA, pH 7.0, 37 °C; read-out: Observed Dissociation Constant (Kd_obs), CAVA
T9 construct: made in house; host or cells: E. coli
Experimental: as §1, §2, §6, §4, §5

[6] = Determination of compound sulfonamide group pKa (UV-Vis spectra at different pH); assay type: physicochemical; conditions: universal buffer; spectrophotometric, 37 °C; read-out: Sulfonamide pKa
Experimental: To calculate the intrinsic thermodynamic parameters of compound binding to CA isozymes, the pKa values of the sulfonamide group and the water molecule bound to the Zn(II) ion at the active site of CA proteins had to be determined. The pKa values for CA isozyme-bound water molecules were taken from, CAI—8.1; CAII—6.9; CAIII—6.5; CAIV—6.6; CAVA—6.7; CAVB—7.0; CAVI—6.0; CAVII—6.8; CAIX—6.6; CAXII—6.8; CAXIII—8.0; CAXIV—6.1. […] The pKa values were calculated as described previously in [28, 52] by normalizing the absorbance, plotting it as a function of pH, then fitting to the Henderson–Hasselbalch equation using the least square method (Figure S105).
Since the pKa values were only able to be measured for compound group 26–36, due to universal buffer pH limitations, intrinsic thermodynamic parameters were not calculated for compounds 2(a,b)–25(a,b), only for compounds 26–36 using experimentally obtained pKa values when possible and using the average pKa value mentioned above for compounds not measured.

CAVII = molecular target: T10, CAVII (Homo sapiens, UniProt P43166); assay: Fluorescent thermal shift assay (FTSA), CAVII; assay type: binding
T10 construct: made in house; host or cells: E. coli
Experimental: as §1, §2, §6, §4, §5

CAXII [7] = molecular target: T11, CAXII (Homo sapiens, UniProt O43570); assay: biochemical; assay type: binding
T11 construct: made in house; host or cells: E. coli
Experimental: as §1, §2, §3, §4, §5

CAXIII [8] = molecular target: T2, CAXIII; assay: biochemical; conditions: Observed Dissociation Constant (Kd_obs), FTSA, pH 7.0, 37 °C
Experimental: as §1, §2, §3, §4, §5

CAVI = molecular target: T12, CAVI (Homo sapiens, UniProt P23280); assay: Fluorescent thermal shift assay (FTSA), CAVI; assay type: binding;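 note: human CAVI expressed in mammalian cells, ANS fluorescence tracked during thermal unfolding, melting temperature fitted against ligand concentration, intrinsic values corrected for deprotonated sulfonamide and Zn-bound water fractions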
T12 construct: made in house
Experimental: as §1, §2, §6, §4, §5

CAI [9] = molecular target: T8, CAI; conditions: FTSA, pH 7.0, 37 °C; taken from previous publication; read-out: Observed Dissociation Constant (Kd_obs), CAI; cited from earlier work
CAII [10] = molecular target: T3, CAII; conditions: FTSA, pH 7.0, 37 °C; taken from previous publication; read-out: Observed Dissociation Constant (Kd_obs), CAII; cited from earlier work
CAXIII [11] = molecular target: T2, CAXIII; conditions: read-out: Observed Dissociation Constant (Kd_obs), CAXIII; FTSA, pH 7.0, 37 °C; taken from previous publication; cited from earlier work
CAIX [12] = molecular target: T1, CAIX; conditions: FTSA, pH 7.0, 37 °C; taken from previous publication; read-out: Observed Dissociation Constant (Kd_obs), CAIX; cited from earlier work
CAXII [13] = molecular target: T11, CAXII; conditions: FTSA, pH 7.0, 37 °C; taken from previous publication; read-out: Observed Dissociation Constant (Kd_obs), CAXII; cited from earlier work
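Throughout, for Intrinsic Gibbs energy change (ΔGint), CAII: recombinant human CAII, thermal shift with ANS dye fluorescence, Kd_obs from fitting melting temperature versus ligand concentration, intrinsic values corrected for deprotonated sulfonamide and Zn-bound water fractions.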

T11 sequence (O43570 25-354): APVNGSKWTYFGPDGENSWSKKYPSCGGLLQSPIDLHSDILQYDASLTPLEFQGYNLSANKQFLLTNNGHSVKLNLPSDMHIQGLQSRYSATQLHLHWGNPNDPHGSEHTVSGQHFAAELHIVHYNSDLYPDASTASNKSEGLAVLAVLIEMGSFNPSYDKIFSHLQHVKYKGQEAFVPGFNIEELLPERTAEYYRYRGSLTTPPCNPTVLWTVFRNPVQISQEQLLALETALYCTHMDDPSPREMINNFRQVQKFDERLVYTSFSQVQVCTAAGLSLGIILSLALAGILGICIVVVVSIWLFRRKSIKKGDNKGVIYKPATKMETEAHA
T2 sequence (Q8N1Q1 whole entry): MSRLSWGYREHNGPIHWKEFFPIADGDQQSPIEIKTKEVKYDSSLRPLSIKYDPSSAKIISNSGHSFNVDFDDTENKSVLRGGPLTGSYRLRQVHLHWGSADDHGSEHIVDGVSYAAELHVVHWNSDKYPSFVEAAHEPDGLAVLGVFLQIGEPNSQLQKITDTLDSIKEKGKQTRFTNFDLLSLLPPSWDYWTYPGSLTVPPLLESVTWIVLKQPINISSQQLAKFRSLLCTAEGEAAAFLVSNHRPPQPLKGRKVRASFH
T8 sequence (P00915 whole entry): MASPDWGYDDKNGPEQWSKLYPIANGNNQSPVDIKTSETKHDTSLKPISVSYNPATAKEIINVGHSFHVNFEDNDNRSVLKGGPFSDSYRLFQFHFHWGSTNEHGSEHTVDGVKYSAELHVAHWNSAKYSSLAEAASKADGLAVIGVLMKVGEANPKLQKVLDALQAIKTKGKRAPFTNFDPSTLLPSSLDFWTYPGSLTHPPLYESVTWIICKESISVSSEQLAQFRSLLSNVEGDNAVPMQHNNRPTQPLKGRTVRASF
T4 sequence (Q9Y2D0 34-317): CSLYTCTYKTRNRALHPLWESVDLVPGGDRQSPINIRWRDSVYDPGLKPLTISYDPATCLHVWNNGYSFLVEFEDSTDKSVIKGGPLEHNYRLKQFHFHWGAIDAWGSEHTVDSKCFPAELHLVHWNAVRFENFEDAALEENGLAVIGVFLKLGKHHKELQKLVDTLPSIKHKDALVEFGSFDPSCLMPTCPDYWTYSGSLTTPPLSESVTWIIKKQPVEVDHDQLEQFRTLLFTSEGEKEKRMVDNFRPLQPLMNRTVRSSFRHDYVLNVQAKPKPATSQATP
T12 sequence (P23280 21-290 limits assumed): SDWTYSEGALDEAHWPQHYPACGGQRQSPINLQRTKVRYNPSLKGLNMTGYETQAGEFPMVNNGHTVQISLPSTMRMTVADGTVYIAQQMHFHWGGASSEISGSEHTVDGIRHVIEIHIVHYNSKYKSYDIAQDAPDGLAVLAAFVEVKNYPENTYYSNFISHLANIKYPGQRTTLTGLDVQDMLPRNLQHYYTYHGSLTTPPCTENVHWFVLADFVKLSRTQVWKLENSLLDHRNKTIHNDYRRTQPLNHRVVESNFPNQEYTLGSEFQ
T7 sequence (P22748 19-312): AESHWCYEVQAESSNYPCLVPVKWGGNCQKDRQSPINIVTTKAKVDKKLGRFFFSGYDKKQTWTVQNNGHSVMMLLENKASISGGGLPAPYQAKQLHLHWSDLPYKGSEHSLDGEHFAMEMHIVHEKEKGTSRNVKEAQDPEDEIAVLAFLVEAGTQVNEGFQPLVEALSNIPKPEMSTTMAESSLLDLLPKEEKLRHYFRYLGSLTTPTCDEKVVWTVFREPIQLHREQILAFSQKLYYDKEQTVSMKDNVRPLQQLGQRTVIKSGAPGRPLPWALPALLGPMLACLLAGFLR
T5 sequence (Q9ULX7 16-337): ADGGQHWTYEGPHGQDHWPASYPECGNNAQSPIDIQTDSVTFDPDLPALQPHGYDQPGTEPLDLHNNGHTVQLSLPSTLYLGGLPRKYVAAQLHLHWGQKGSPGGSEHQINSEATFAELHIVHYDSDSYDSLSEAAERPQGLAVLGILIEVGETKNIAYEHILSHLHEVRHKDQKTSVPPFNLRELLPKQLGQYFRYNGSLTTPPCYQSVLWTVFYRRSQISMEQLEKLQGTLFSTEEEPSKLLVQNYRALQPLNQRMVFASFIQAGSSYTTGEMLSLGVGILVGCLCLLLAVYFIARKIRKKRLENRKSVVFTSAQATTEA
T10 sequence (P43166 whole entry): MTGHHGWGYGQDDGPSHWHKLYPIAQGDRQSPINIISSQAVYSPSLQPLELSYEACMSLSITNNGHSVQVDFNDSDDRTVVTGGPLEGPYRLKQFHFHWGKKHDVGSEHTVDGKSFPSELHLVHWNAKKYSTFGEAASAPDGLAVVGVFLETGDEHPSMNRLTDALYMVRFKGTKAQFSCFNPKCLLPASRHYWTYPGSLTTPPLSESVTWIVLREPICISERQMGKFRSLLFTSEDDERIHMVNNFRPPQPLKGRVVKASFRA
T6 sequence (P07451 whole entry): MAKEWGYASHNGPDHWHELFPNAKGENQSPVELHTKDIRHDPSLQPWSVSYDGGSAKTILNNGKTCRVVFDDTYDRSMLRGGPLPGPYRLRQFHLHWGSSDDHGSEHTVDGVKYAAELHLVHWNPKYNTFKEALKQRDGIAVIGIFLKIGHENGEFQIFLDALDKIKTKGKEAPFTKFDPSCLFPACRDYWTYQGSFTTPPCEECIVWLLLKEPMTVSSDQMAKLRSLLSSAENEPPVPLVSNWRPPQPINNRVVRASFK
T9 sequence (P35218 39-305): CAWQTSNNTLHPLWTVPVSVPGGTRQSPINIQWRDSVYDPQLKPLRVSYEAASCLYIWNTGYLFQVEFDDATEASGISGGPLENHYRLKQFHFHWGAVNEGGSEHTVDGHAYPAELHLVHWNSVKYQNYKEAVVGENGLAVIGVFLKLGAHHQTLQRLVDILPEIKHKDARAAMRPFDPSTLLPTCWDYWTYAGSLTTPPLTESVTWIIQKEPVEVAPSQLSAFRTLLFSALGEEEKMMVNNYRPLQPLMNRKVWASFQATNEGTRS

In the case of `CCOC(=O)c1sc(N(CCC(=O)O)c2ccc(S(N)(=O)=O)cc2)nc1C` [Compound 31, 3-((5-(Ethoxycarbonyl)-4-methylthiazol-2-yl)(4-sulfamoylphenyl)amino)propanoic acid], the “Intrinsic Gibbs energy change (ΔGint), CAIX” value (CAIX [1]; 37 °C, calculated (Equation 5)) is reported as -59.8 kJ/mol, the Kd (CAIX [1]; FTSA, pH 7.0, 37 °C, read-out: Observed Dissociation Constant (Kd_obs), CAIX) is reported as 360 nM and the “Intrinsic Gibbs energy change (ΔGint), CAXIII” value (CAXIII [2]) is reported as -56.2 kJ/mol. The Kd (CAII [3]) was 860 nM, the “Intrinsic Gibbs energy change (ΔGint), CAVB” value (CAVB; 37 °C, calculated (Equation 5)) was -48.0 kJ/mol and the Kd (CAVB; FTSA, pH 7.0, 37 °C, read-out: Observed Dissociation Constant (Kd_obs), CAVB) was 20 µM. The “Intrinsic Gibbs energy change (ΔGint), CAII” value (CAII [4]; 37 °C, calculated (Equation 5)) was -56.3 kJ/mol, the Kd (CAII [4]; FTSA, pH 7.0, 37 °C, read-out: Observed Dissociation Constant (Kd_obs), CAII) was 910 nM and the “Intrinsic Gibbs energy change (ΔGint), CAXIV” value (CAXIV; 37 °C, calculated (Equation 5)) was -57.8 kJ/mol. The Kd (CAXIV; FTSA, pH 7.0, 37 °C, read-out: Observed Dissociation Constant (Kd_obs), CAXIV) was 2000 nM, the Kd (CAIII) was no less than 200 µM and the “Intrinsic Gibbs energy change (ΔGint), CAIV” value (CAIV; 37 °C, calculated (Equation 5)) was -52.3 kJ/mol. The Kd (CAIV; FTSA, pH 7.0, 37 °C, read-out: Observed Dissociation Constant (Kd_obs), CAIV) was 6.7 µM, the “Intrinsic Gibbs energy change (ΔGint), CAI” value (CAI [5]; 37 °C, calculated (Equation 5)) was -52.4 kJ/mol and the Kd (CAI [5]; FTSA, pH 7.0, 37 °C, read-out: Observed Dissociation Constant (Kd_obs), CAI) was 2000 nM. For the same molecule, the Kd (CAVA) was no less than 200 µM, the pKa [6] was 10.1 and the “Intrinsic Gibbs energy change (ΔGint), CAVII” value (CAVII; 37 °C, calculated (Equation 5)) was -55.0 kJ/mol. For the same molecule, the Kd (CAVII; FTSA, pH 7.0, 37 °C, read-out: Observed Dissociation Constant (Kd_obs), CAVII) was 1700 nM, the “Intrinsic Gibbs energy change (ΔGint), CAXII” value (CAXII [7]; 37 °C, calculated (Equation 5)) was -52.9 kJ/mol and the Kd (CAXII [7]; FTSA, pH 7.0, 37 °C, read-out: Observed Dissociation Constant (Kd_obs), CAXII) was 3.8 µM. For the same molecule, the Kd (CAXIII [8]) was 450 nM, the “Intrinsic Gibbs energy change (ΔGint), CAVI” value (CAVI; 37 °C, calculated (Equation 5)) was -51.9 kJ/mol and the Kd (CAVI; FTSA, pH 7.0, 37 °C, read-out: Observed Dissociation Constant (Kd_obs), CAVI) was 24 µM. It also gave a melting point of 221 to 222 °C.

In the case of `NS(=O)(=O)c1ccc(N(CCC(=O)O)c2nc(-c3ccc(Cl)cc3)cs2)cc1` [Compound 35], the Kd (CAI [9]) is listed as 25 nM, the Kd (CAII [10]) is listed as 100 nM and the Kd (CAXIII [11]) is listed as 530 nM. For the same molecule, the Kd (CAIX [12]) was 560 nM and the Kd (CAXII [13]) was 200 nM.
